Results on nine molecules are retold here after PubChem BioAssay (NCI).

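Assay format: 96-well plates, 48-hour exposure. Abbreviation: GI50, concentration required for 50% inhibition of growth. Definition used: TGI = concentration required for complete inhibition of growth.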

Among the test systems are MCF7 breast; SK-MEL-2 melanoma; CCRF-CEM leukemia; CAKI-1 renal; HOP-92 NSCLC; HOP-62 NSCLC; OVCAR-3 ovarian; SR leukemia; SK-OV-3 ovarian; NCI-H23 lung.
What all share (experiment): inhibition of tumour cell growth, NCI panel, 48 h

Consider `CSc1nc2c(c(=O)n1C)CN(C1CCCCC1)C(=O)C(c1ccccc1)N2` (stereo not given), for which the GI50 with MCF7 breast was 19.3 µM; with SK-MEL-2 melanoma, 26.2 µM; in the experiment with CCRF-CEM leukemia, 11.3 µM; with CAKI-1 renal, 26.9 µM; with HOP-92 NSCLC, 14.3 µM; in the experiment on HOP-62 NSCLC it was more than 100 µM. Moreover, the GI50 in the experiment with OVCAR-3 ovarian is 20.1 µM; with SR leukemia it was 6.38 µM; in the experiment with SK-OV-3 ovarian, 76.8 µM; with NCI-H23 lung, 51.2 µM. For the same molecule, the TGI is 66 µM with MCF7 breast; more than 100 µM in the experiment on SK-MEL-2 melanoma; more than 100 µM in the experiment on CCRF-CEM leukemia; more than 100 µM in the experiment on CAKI-1 renal; 91.4 µM in the experiment with HOP-92 NSCLC; more than 100 µM in the experiment on HOP-62 NSCLC. The TGI in the experiment on OVCAR-3 ovarian was 82 µM; in the experiment on SR leukemia, more than 100 µM; with SK-OV-3 ovarian, more than 100 µM; in the experiment with NCI-H23 lung, more than 100 µM.

Take `COC(=O)c1oc2c(C(=O)/C=C/c3ccc(OC)cc3)c(OCCN(C)C)ccc2c1C`: the GI50 in the experiment with MCF7 breast is 2.98 µM; with SK-MEL-2 melanoma, 12.4 µM; with CCRF-CEM leukemia it was 2.24 µM; in the experiment with CAKI-1 renal, 6.95 µM; with HOP-92 NSCLC, 5.91 µM; with HOP-62 NSCLC, 20.5 µM. Also, the GI50 was 7.19 µM in the experiment on OVCAR-3 ovarian, 2.37 µM in the experiment with SR leukemia, 5.14 µM with SK-OV-3 ovarian and 9.76 µM in the experiment on NCI-H23 lung. Also, the TGI with MCF7 breast was 9.89 µM; with SK-MEL-2 melanoma it was 28.8 µM; in the experiment with CCRF-CEM leukemia, 6.93 µM; with CAKI-1 renal, 20.2 µM; in the experiment with HOP-92 NSCLC it was 19.8 µM; in the experiment with HOP-62 NSCLC, 38.7 µM. Besides, the TGI in the experiment on OVCAR-3 ovarian is 21.3 µM; in the experiment with SR leukemia, 7.38 µM; with SK-OV-3 ovarian, 17.8 µM; with NCI-H23 lung, 26.1 µM.

For the molecule `Cc1cc(Nc2nc(N[C@@H](C)c3ncc(F)cn3)ncc2Cl)n[nH]1`, the GI50 in the experiment with MCF7 breast was 8.71 µM; in the experiment on SK-MEL-2 melanoma, 28.7 µM; in the experiment with CCRF-CEM leukemia it was 55.7 µM; in the experiment on CAKI-1 renal, 17.5 µM; with HOP-92 NSCLC, 10.1 µM; in the experiment with HOP-62 NSCLC it was 20 µM. The GI50 with OVCAR-3 ovarian is 59.1 µM; in the experiment on SR leukemia, 4.15 µM; with SK-OV-3 ovarian, 22.6 µM; in the experiment on NCI-H23 lung, 23.1 µM. Also, the TGI was more than 100 µM with MCF7 breast; 92.1 µM in the experiment with SK-MEL-2 melanoma; more than 100 µM in the experiment on CCRF-CEM leukemia; more than 100 µM in the experiment with CAKI-1 renal; 42.4 µM in the experiment with HOP-92 NSCLC; more than 100 µM in the experiment on HOP-62 NSCLC. For the same molecule, the TGI with OVCAR-3 ovarian, with SR leukemia, with SK-OV-3 ovarian and with NCI-H23 lung was more than 100 µM each time.

Consider `CC(=O)NNc1nc(C)c(C(/C=C/c2ccccc2O)=N/N=C(N)N)s1`, for which the TGI in the experiment with MCF7 breast, with SK-MEL-2 melanoma, in the experiment on CCRF-CEM leukemia, in the experiment with CAKI-1 renal, with HOP-92 NSCLC and in the experiment with HOP-62 NSCLC was more than 100 µM in each case. For the same molecule, the TGI in the experiment with OVCAR-3 ovarian, in the experiment on SR leukemia, with SK-OV-3 ovarian and in the experiment on NCI-H23 lung was more than 100 µM in each case.

With `NS(=O)(=O)c1cc(C(=O)O)c(O)c2ccccc12`, the TGI in the experiment on MCF7 breast, in the experiment with SK-MEL-2 melanoma, with CCRF-CEM leukemia, in the experiment on CAKI-1 renal, in the experiment with HOP-92 NSCLC and with HOP-62 NSCLC was more than 100 µM in each case. For the same molecule, the TGI in the experiment with OVCAR-3 ovarian, in the experiment with SR leukemia, in the experiment with SK-OV-3 ovarian and in the experiment with NCI-H23 lung was more than 100 µM throughout.

Turning to `Cn1cc(-c2cnn3c(N)c(Br)c(C4CCCNC4)nc23)cn1` (stereo not given), the GI50 with MCF7 breast was 13.7 µM; in the experiment with SK-MEL-2 melanoma it was 17.1 µM; in the experiment with CCRF-CEM leukemia, 0.631 µM; with CAKI-1 renal, 5.43 µM; in the experiment on HOP-92 NSCLC, 5.51 µM; with HOP-62 NSCLC it was 6.69 µM. Moreover, the GI50 is 16 µM in the experiment on OVCAR-3 ovarian, 0.326 µM in the experiment on SR leukemia, 4.06 µM in the experiment with SK-OV-3 ovarian and 0.546 µM in the experiment on NCI-H23 lung. For the same molecule, the TGI was more than 68.6 µM in the experiment with MCF7 breast; 63.7 µM in the experiment with SK-MEL-2 melanoma; 38.9 µM with CCRF-CEM leukemia; more than 38.5 µM in the experiment on CAKI-1 renal; more than 68.5 µM in the experiment on HOP-92 NSCLC; more than 100 µM in the experiment on HOP-62 NSCLC. Further, the TGI is more than 88.9 µM with OVCAR-3 ovarian, 16.9 µM with SR leukemia, 66.8 µM with SK-OV-3 ovarian and more than 81.6 µM in the experiment on NCI-H23 lung.

Regarding `O=C(CCN1CCCCC1)N1CCc2c([nH]c3ccccc23)C1c1cccnc1` (stereo not given), the TGI is more than 100 µM with MCF7 breast; 36.9 µM in the experiment with SK-MEL-2 melanoma; 99 µM with CCRF-CEM leukemia; more than 100 µM in the experiment with CAKI-1 renal; 66 µM with HOP-92 NSCLC; more than 100 µM in the experiment with HOP-62 NSCLC. The TGI in the experiment on OVCAR-3 ovarian, in the experiment with SR leukemia, in the experiment on SK-OV-3 ovarian and in the experiment on NCI-H23 lung was more than 100 µM throughout.

On to `Cc1cc(Nc2cc(N3CCN(C)CC3)nc(/C=C/c3ccccc3)n2)n[nH]1`, for which the GI50 with MCF7 breast is 0.235 µM; in the experiment on SK-MEL-2 melanoma it was 0.702 µM; in the experiment with CCRF-CEM leukemia, 0.412 µM; with CAKI-1 renal, 0.223 µM; in the experiment on HOP-92 NSCLC, 0.476 µM; in the experiment with HOP-62 NSCLC, 0.768 µM. Also, the GI50 is 1.2 µM with OVCAR-3 ovarian, 0.103 µM in the experiment on SR leukemia, 1.35 µM in the experiment on SK-OV-3 ovarian and 1.14 µM in the experiment with NCI-H23 lung. For the same molecule, the TGI in the experiment on MCF7 breast was more than 7.88 µM; in the experiment with SK-MEL-2 melanoma, more than 2.39 µM; with CCRF-CEM leukemia, more than 10 µM; with CAKI-1 renal it was more than 5.38 µM; in the experiment on HOP-92 NSCLC, 1.95 µM; in the experiment with HOP-62 NSCLC, more than 3.98 µM. In addition, the TGI with OVCAR-3 ovarian was more than 10 µM; in the experiment with SR leukemia, 2.19 µM; in the experiment with SK-OV-3 ovarian, more than 10 µM; in the experiment on NCI-H23 lung, more than 5.23 µM.

With `Cc1cc(-c2cc(O)ccc2Cl)cc2nnc(Nc3ccc(OCCN4CCCC4)cc3)nc12`, the GI50 was 0.179 µM in the experiment with MCF7 breast; 1.7 µM with SK-MEL-2 melanoma; 0.242 µM with CCRF-CEM leukemia; 1.54 µM with CAKI-1 renal; 1.1 µM in the experiment on HOP-92 NSCLC; 1.88 µM in the experiment with HOP-62 NSCLC. For the same molecule, the GI50 with OVCAR-3 ovarian is 1.59 µM; with SR leukemia it was 0.239 µM; in the experiment on SK-OV-3 ovarian it was 1.3 µM; in the experiment with NCI-H23 lung it was 0.812 µM. Also, the TGI with MCF7 breast was 0.356 µM; in the experiment on SK-MEL-2 melanoma it was 3.64 µM; in the experiment with CCRF-CEM leukemia, 0.634 µM; in the experiment with CAKI-1 renal it was 2.97 µM; in the experiment on HOP-92 NSCLC it was 2.59 µM; in the experiment on HOP-62 NSCLC, 3.79 µM. Further, the TGI in the experiment with OVCAR-3 ovarian came out at 3.12 µM; in the experiment with SR leukemia, 0.595 µM; in the experiment with SK-OV-3 ovarian it was 2.8 µM; in the experiment with NCI-H23 lung, 2.48 µM.
